# Experiments:
# myelin = assay: Myelin status in spinal cords of EAE mice (immunofluorescent staining for MBP, Western for MBP and PLP); format: in vivo, C57BL/6 mice; settings: 1 mg/kg/day, N6022 vs FTY720
# Procedure: Female C57BL/6 mice of 8-12 weeks of age, purchased from Jackson Laboratory, were provided with food and water ad libitum and were kept in pathogen free animal care facility of Medical University of South Carolina (MUSC) throughout the study. All procedures were conducted in accordance with accepted standards of humane care as approved by the Institutional Animal Care and Use Committee (Approved number: AR #1644). EAE was induced as described previously (Nath et al., 2009). Briefly, mice were immunized subcutaneously in the flank regions with MOG35-55 peptide (MOG; 200 μg; Peptide International) emulsified (1:1) in 100 ul complete Freund's adjuvant (CFA) on day 0 and day 7. Additionally, 300 ng of Pertussis toxin (Sigma-Aldrich, St. Louis, Mo.) was given on day 0 and day 2 by i.p. injection. […] Clinical signs of EAE were scored by examiners blinded to experimental treatments using the following scale: 0=no clinical signs of disease; 1=piloerection and sluggish; 2=limp tail (ataxia); 2.5=ataxia with partial hind limb paralysis; 3=full paralysis of hind limb; 3.5=full paralysis of hind limb with paralysis of one fore limb; 4=full paralysis of two limbs; 4.5=moribund stage; 5=death. […]
# Tissue samples were embedded in paraffin block and sectioned transversely (5 μm-thick). […] For the quantitation of infiltrates, the digital images were analyzed by ImageJ (NIH, Bethesda, Md.). […]
# [1] = tested on: IFN-γ, IL-4, IL-17, IL-10; assay: ELISA of CD4+ T cell subset specific cytokines from spleen derived cells of EAE mice after MOG restimulation; format: in vivo, C57BL/6 mice; settings: N6022, MOG restimulation
# Procedure: Female C57BL/6 mice of 8-12 weeks of age, purchased from Jackson Laboratory, were provided with food and water ad libitum and were kept in pathogen free animal care facility of Medical University of South Carolina (MUSC) throughout the study. All procedures were conducted in accordance with accepted standards of humane care as approved by the Institutional Animal Care and Use Committee (Approved number: AR #1644). EAE was induced as described previously (Nath et al., 2009). Briefly, mice were immunized subcutaneously in the flank regions with MOG35-55 peptide (MOG; 200 μg; Peptide International) emulsified (1:1) in 100 ul complete Freund's adjuvant (CFA) on day 0 and day 7. Additionally, 300 ng of Pertussis toxin (Sigma-Aldrich, St. Louis, Mo.) was given on day 0 and day 2 by i.p. injection. Pertussis toxin used as per the standardized protocol reported by us and other investigators for the induction of EAE (Nath et al., 2009). Similarly, healthy control group received subcutaneous injection of PBS and CFA emulsion on day 0 and day 7. Clinical signs of EAE were scored by examiners blinded to experimental treatments using the following scale: 0=no clinical signs of disease; 1=piloerection and sluggish; 2=limp tail (ataxia); 2.5=ataxia with partial hind limb paralysis; 3=full paralysis of hind limb; 3.5=full paralysis of hind limb with paralysis of one fore limb; 4=full paralysis of two limbs; 4.5=moribund stage; 5=death. […] The drug treatments were continued till the termination of the study (day 41 post immunization). EAE animals without drug treatment received PBS. Likewise, healthy controls received vehicle.
# Fluorescence flow cytometry analysis for each subset of CD4+ T cells (TH1, TH2, TH17, CD4+CD25+ FOXP3+ Treg, and CD4+CD25+ FOXP3− Treg) were performed based on our previous report with modification (Nath et al., 2004). Briefly, control mice, EAE mice. EAE mice treated with GSNO. […] Following the preparation of single cell suspension, red blood cells were lysed with Pharma lyse buffer (BD Pharmingen™) and the remaining spleen cells were washed with RPMI 1640. The isolated CD4+ T cells were then resuspended with complete RPMI-media in 12-well plates (5×10^6 cells' 2 ml per well) containing MOG peptide (25 μg/ml) for 48 hrs. […] The cell pellets were washed with cell staining solution (ebioscience, Waltham, Mass. USA) and stained with fluorescence labeled antibody specific to IFN-γ for TH1. […] The cells were counted and analyzed using Beackman Coulter instrument (Beckman Coulter, Inc., Brea, Calif., USA).
# ELISA assay was performed for analysis of CD4+ T cell subset specific cytokines released from cultured cells or spinal cord tissues. […] The equal amounts of proteins were analyzed for ELISA for IFN-γ. […]
structure (smiles),measurement,setting,value
"Cc1cc(C(N)=O)ccc1-n1c(CCC(=O)O)ccc1-c1ccc(-n2ccnc2)cc1 [N6022, reference compound]",protection against myelin loss in the spinal cords,myelin,protects against the myelin loss in the spinal cords of EAE mice greater than FTY720 treatment
same,IL-10 production from spleen derived cells,[1],enhanced
same,production of IFN-γ from spleen derived cells,[1],decreased
same,production of IL-17 from spleen derived cells,[1],decreased
same,IL-4 production from spleen derived cells,[1]; to the control levels,fully restored
